Test [1] deals with human peripheral blood monocytes. In words: LID transfection of monocytes, EGFP by FACS and cell death. In kind it is cell-based. The settings on record: FIG. 7a. How it is done: (§1) Lipopolyplex (LID) transfection complexes comprising lipid (L), peptide (in the form of a peptide derivative as described above) (I) and DNA (D) were prepared. The lipid component was Lipofectin or Lipofectamine 2000 (Invitrogen Ltd, Paisley, UK), the peptide component was a synthesized peptide A to F, 6 or 6J derivative, as described in Table 7 above, and the DNA was the plasmid pEGFP-N1 (Clontech, BD Biosciences, Palo Alto, Calif.)
(§2) component (Lipofectin or Lipofectamine 2000) was maintained at a constant proportion, by weight, relative to DNA of 0.75:1. Prior to making transfection complexes, in method A the lipid component was diluted to a concentration of 15 μg per ml, the peptide was prepared at 0.1 mg/ml and the DNA (plasmid pEGFP-N1, BD Biosciences, Cowley, UK, prepared using EndoFree plasmid kit, Qiagen Ltd, Crawley, UK) was at 10 μg per ml. All dilutions were performed with OptiMEM reduced serum tissue culture medium (Life Technologies Ltd, Paisley, UK). In method B prior to making transfection complexes the lipid component was diluted to a concentration of 30 μg per ml, the peptide was prepared at 0.1 mg/ml and the DNA (plasmid pEGFP-N1, BD Biosciences, Cowley, UK, prepared using EndoFree plasmid kit, Qiagen Ltd, Crawley, UK) was at […]. All dilutions were performed in serum-free RPMI.
(§3) Transfection complexes were made by mixing the components in the order 1) lipid (50 μl) then 2) peptide (70 μl) and finally 3) DNA (50 μl), then diluting with OptiMEM or serum free RPMI, as appropriate, to a concentration relative to the DNA component of 2 μg DNA per […] (OptiMEM) or 500 μl (RPMI).
(§4) For transfection of monocytes, peripheral blood monocytes were prepared using Lymphoprep centrifugation and CD14 bead selection as described in the method for preparation of monocyte derived dendritic cells in Example 1(v) above. These cells were then transfected as described as described for dendritic cells except that transfection of the monocytes (and also of day 3 or day 4 immature dendritic cells) was carried out in solution.

Test [2] has as its system human monocyte-derived immature dendritic cells. In words: Whole cell flow cytometry (FACS) of phage clone binding. The following applies: day 4 cells, several donors; versus phage clone with no insert. How it is done:
5×10^4 Dendritic cells and 2×10^11 of an individual purified phage clone were each blocked at 4° C. for 30 mins in 1 ml MBSA (2% Marvel, 5% BSA in PBS), with mixing on a turntable. The dendritic cells were spun down at 2000 rpm, a gentle centrifugation to pellet cells without lysing them, for 5 min at 4° C., and the pellet resuspended in the blocked phage solution. The mixture was held on ice for 30 min to allow the phage to bind, before spinning down the cells, removing the supernatant and washing the cells with 1 ml 1% BSA, 0.05% Tween20-PBS. The cells were spun again, the supernatant removed, and the cells fixed in 1 ml 1% paraformaldehyde for 30 min on ice. […] The cells were incubated with the antibody on ice for 30 min before spinning down, washing twice in 0.05% Tween20, 1% BSA PBS, resuspending in […] and measuring the percentage cells positive for FITC by FACS analysis.
Alternatively, 5×10^4 dendritic cells were mixed with 2×10^11 of individual phage clones as described for panning of the phage library. The mixture of phage and DC suspensions was kept on ice for 30 min before cells were centrifuged to remove the supernatant and washed with 1 ml 1% BSA, 0.05% Tween 20-PBS. The cells were again pelleted by centrifugation, then fixed for flow cytometry analysis by resuspending in 1 ml of 1% paraformaldehyde for 30 min on ice. […] The cells were incubated with the antibody on ice for 30 min then pelleted by centrifugation, washed twice in 0.05% Tween 20, 1% BSA PBS and resuspended in 200 μl PBS. The percentage of FITC-positive cells was determined by flow cytometry using a Epics XL flow cytometer (Beckman Coulter, High Wycombe, UK.).
A general note: In flow cytometry, cells or beads pass a laser one at a time.

A short description of test [3]: Titration of phage clone binding to blocked plastic (control). How it is done:
(§5) The dendritic cells were spun down at 2000 rpm, for 5 min at 4° C., and resuspended in the phage solution, allowing the phage to bind for 1 hour on ice with occasional mixing. The cells were then washed in PBS-Tween 20 (0.05%) three times before eluting phage with 166 μl TBS pH5.5. for 10 min on ice. The eluate was neutralised with […] Tris-HCl pH 8, the cells were spun down, and the supernatant removed to be stored as eluate. The cell pellet was resuspended in 200 μl of cell lysis buffer (30 mM Tris-HCl, 1 mM EDTA pH 8.0) for 1 hour on ice, with shaking. The cell debris was removed by spinning at 5000 rpm for 5 min and the supernatant recovered. The phage in the eluate and the cell lysate were titred by measuring plaque forming units (pfu) in E. coli ER2738 as described in the NEB C7C technical bulletin.
(§6) The titration of phage clone binding was carried out using human and mouse dendritic cells, with binding to plastic as a control. The human cells were obtained from donors as stated below.

The test system of test [4] is human monocyte-derived immature dendritic cells. Description: LID (lipid-peptide-DNA) transfection of immature dendritic cells, EGFP by FACS and 7AAD cell death. The following applies: day 4 cells, lipofectin, lipid:DNA 0.75:1, peptide:DNA 7:1 (FIG. 5a). In kind it is cell-based. How it is done:
as §1
In the transfection complex, peptide component to DNA charge ratios (+/−) were used at 1.5:1, 3:1 and 7:1. The lipid
as §2, §3
Immature day 6 dendritic cells, obtained as described in Example 1(v) above, were plated into a 48 well plate at 5×10^4 cells per well in complete media and allowed to settle for 3 hours at 37° C. 300 μl or 500 μl (as appropriate) of the transfection complex obtained as described above was added to each well. The transfection complex was applied to cells within 5 minutes of preparation. Transfection incubations were performed at 37° C. for 4 hours, after which the medium was replaced with complete medium with cytokines for 24 hours. Cells were harvested by scraping, spun down and resuspended in 300 μl PBS for FACS analysis to determine the percentage of cells positive for the reporter gene EGFP (Enhanced Green Fluorescent Protein). Each transfection was performed in triplicate wells.
as §4

For test [5] the test system is unchanged. Description: Titration of phage clone binding to human dendritic cells. How it is done:
Phage were recovered and titred from each round of selection as follows. 2×10^11 Blocked phage were added to 5×10^4 blocked monocyte-derived immature dendritic cells for 1 hour on ice before washing cells three times with 0.05% Tween20-PBS, eluting phage with TBS pH5.5, and lysing cells to harvest the phage remaining bound. The numbers of phage harvested by cell lysis were calculated as plaque forming units (pfu). […] Sequencing of the bound phage shown in FIG. 1 identified the peptides as APSNSTA [SEQ. ID. NO.:15], QLLTGAS [SEQ. ID. NO.:30], TARDYRL [SEQ. ID. NO.:31], FQSQYQK [SEQ. ID. NO.:26], PLMPSLS [SEQ. ID. NO.:24], FPRAPHH [SEQ. ID. NO.:32], MASISMK [SEQ. ID. NO.:27], DWWHTSA [SEQ. ID. NO.:28], SHVKLNS [SEQ. ID. NO.:29], and SPALKTV [SEQ. ID. NO.:16].
as §5, §6

Test [6] deals with mouse dendritic cells. In words: Titration of phage clone binding to mouse dendritic cells. The settings on record: 2×10^11 phage. How it is done: as §5, §6

On to “FPRAPHH (Synthetic peptide binding to dendritic cells)”, for which the “Percentages of cells transfected (ranking)” value in test [1] was “highest percentages of cells transfected”. In addition, the “Percentage of cells positive for bound phage (FITC) by FACS” value in test [2] is listed as “a higher percentage of cells positive for bound phage than the controls with no insert”. Also, in test [3], the “Phage titre (pfu), plastic” value was determined as 1860 pfu ×10^3. Besides, the “Transfection efficiency, % positive cells” value in test [4] was determined as 11%. Besides, the “Phage harvested by cell lysis (pfu), human donor S” value in test [5] (2×10^11 phage on 5×10^4 cells, 1 hour on ice, donor S) is recorded as 19400 pfu ×10^3. Also, the “Phage harvested by cell lysis (pfu), human donor one” value in test [5] (2×10^11 phage on 5×10^4 cells, 1 hour on ice, donor one) was found to be 15920 pfu ×10^3. Moreover, in test [5] (2×10^11 phage on 5×10^4 cells, 1 hour on ice, donor two), the “Phage harvested by cell lysis (pfu), human donor two” value came to 3200 pfu ×10^3. Further, the “Extent of phage clone binding in titrations” value in test [5] (all titrations, including mouse dendritic cells, versus phage with no insert) is listed as “bound in highest numbers in all titrations”. The “Phage titre (pfu), mouse DCs” value in test [6] stood at 13980 pfu ×10^3.

(Values after patent publication US7820624B2, “Peptide ligands” (ICH Productions Limited, priority 2003, dated 2010).)
